Data published in patent publication US5714509A, “Inhibitors of bacterial sialidase and methods of making and using the same” (The University of Alabama, priority 1995, dated 1998).

What was measured:
[1] = system: S. typhimurium sialidase; details: cited from earlier work
[2] = system: influenza virus sialidase; details: cited from earlier work; for IC50: read-out: IC50 for influenza virus sialidase inhibition
[3] = system: S. typhimurium sialidase; details: substrate of S. typhimurium sialidase; cited from earlier work
[4] = molecular target: T1, bacterial sialidase (Micromonospora viridifaciens) (Micromonospora viridifaciens, UniProt Q02834); assay: Inhibition of bacterial sialidase (Micromonospora viridifaciens), fluorescence assay with MUN; assay type: biochemical; details: 10 mM inhibitor, 0.1 mM MUN, pH 6.0, 37° C., 15 minutes
T1 sequence (Q02834 38-647): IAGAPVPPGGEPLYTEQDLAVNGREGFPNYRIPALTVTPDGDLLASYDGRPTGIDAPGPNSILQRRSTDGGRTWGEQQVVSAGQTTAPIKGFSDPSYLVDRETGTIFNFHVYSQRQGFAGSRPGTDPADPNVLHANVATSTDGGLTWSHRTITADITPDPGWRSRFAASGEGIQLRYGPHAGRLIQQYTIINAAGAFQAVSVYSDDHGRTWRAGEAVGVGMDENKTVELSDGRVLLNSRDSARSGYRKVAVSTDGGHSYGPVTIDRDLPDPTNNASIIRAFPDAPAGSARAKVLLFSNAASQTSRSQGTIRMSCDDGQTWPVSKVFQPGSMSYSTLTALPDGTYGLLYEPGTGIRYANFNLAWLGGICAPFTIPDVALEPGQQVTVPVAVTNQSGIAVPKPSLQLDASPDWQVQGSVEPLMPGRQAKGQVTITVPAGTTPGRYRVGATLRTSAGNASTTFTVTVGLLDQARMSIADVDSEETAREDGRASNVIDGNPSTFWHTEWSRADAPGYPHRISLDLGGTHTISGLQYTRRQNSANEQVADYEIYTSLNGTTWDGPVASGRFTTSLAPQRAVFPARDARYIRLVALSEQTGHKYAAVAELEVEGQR

CC(=O)N[C@H]1[C@H]([C@H](O)[C@H](O)CO)OC(O)(C(=O)O)C[C@@H]1O (stereo partly shown) [Neu5Ac]
inhibition by high levels of the cleavage product ([1]; high levels, compared to influenza virus sialidase): do not inhibit the bacterial sialidase

CC(=O)N[C@H]1[C@H]([C@H](O)[C@H](O)CO)OC(C(=O)O)=C[C@@H]1O [Neu5Ac2en]
Ki [1]: 0.38 mM | IC50 [2]: ~10 mM

CC(=O)N[C@H]1[C@H]([C@H](O)[C@H](O)CO)OC(C(=O)O)=C[C@@H]1N=C(N)N [4-guanidino-Neu5Ac2en]
inhibition selectivity for influenza virus sialidase versus bacterial sialidases ([2]; influenza virus versus bacterial sialidases): inhibition selectivity of 4-guanidino-Neu5Ac2en for influenza virus sialidase versus bacterial sialidases

CC(=O)NC1C(O)CC(Oc2ccc3c(C)cc(=O)oc3c2)(C(=O)O)OC1C(O)C(O)CO [MUN, 4-methylumbelliferyl-a-D-N-acetylneuraminic acid]
Km [3]: 250 µM | turnover number [3]: 2,700 sec^-1

CC(=O)Nc1c(O)cc(C(=O)O)cc1[N+](=O)[O-] [HNBA, 4-acetylamino-3-hydroxyl-5-nitro-benzoic acid]
inhibition of bacterial sialidase (in words) [4]: inhibited bacterial sialidase with efficiencies similar to Neu5Ac2en | inhibition of type A and B influenza virus sialidase (in words) ([2]; both type A and B): potent inhibitors | inhibition of influenza virus sialidase (in words) [2]: millimolar | IC50 [2]: ~10 mM
